Where two headings read alike, the source gives them in different places.
Experiments:
GSK-3β [1] = details: read-out: GSK-3β inhibition IC50; cited from earlier work
[2] = test system: Aβ42 induced neurotoxicity in SH-SY5Y cells; details: cited from earlier work
GSK-3β [3] = target: T1, GSK-3β (Homo sapiens, UniProt P49841); assay: ADP-Glo kinase luminescent assay, GSK-3β inhibition; assay type: biochemical; details: for Ligand-lipophilic efficiency (LiPE): LiPE = pIC50 – CLogP
[4] = Parallel artificial membrane permeability assay; details: PAMPA; for Papp at 5 h, 20 μM: pH 7.4, PAMPA permeability classification, pH 7.4, 5 h
[5] = test system: GSK-3β mediated tau phosphorylation at pS396; assay: SH-SY5Y whole-cell lysate GSK-3β assay with human tau pS396 ELISA; assay type: biochemical; details: for effect on GSK-3β mediated tau hyperphosphorylation (pS396): 2, 10 and 50 μM, 2 h, 37 °C, lysate fortified with 0.25% GSK-3β, ELISA
[6] = test system: panel of 41 human protein kinases; assay: Kinase selectivity screening, panel of 41 human protein kinases; assay type: biochemical; details: 5 μM
GSK-3β [7] = target: T1, GSK-3β; assay: GSK-3β kinetic studies; assay type: biochemical; details: 30 0 to 5 μM
[8] = test system: Aβ42 induced neurotoxicity in SH-SY5Y cells; assay: Anti-Aβ42 neurotoxicity assay in SH-SY5Y cells; assay type: cell-based, human
SH-SY5Y cells = assay: Cytotoxicity assessment in SH-SY5Y cells; assay type: cell-based, human; details: 72 h

T1 sequence (P49841 whole entry): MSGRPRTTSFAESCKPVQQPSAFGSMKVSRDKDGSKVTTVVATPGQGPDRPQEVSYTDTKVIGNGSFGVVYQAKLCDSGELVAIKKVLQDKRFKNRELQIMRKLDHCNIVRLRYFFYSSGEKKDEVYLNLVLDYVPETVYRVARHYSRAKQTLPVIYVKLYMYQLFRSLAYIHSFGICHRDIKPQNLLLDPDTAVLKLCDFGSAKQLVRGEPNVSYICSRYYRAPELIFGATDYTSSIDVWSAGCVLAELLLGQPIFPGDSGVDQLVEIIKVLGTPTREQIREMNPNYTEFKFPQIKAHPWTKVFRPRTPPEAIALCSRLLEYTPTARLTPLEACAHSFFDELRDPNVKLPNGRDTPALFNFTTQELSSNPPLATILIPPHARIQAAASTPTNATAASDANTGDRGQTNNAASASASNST

For O=C([O-])[O-].[Li+].[Li+] [Lithium carbonate, lithium carbonate], the IC50 (GSK-3β [1]) is listed as 2 mM.
For O=c1cc(-c2ccc(O)c(O)c2)oc2cc(O)c([C@@H]3O[C@H](CO)[C@@H](O)[C@H](O)[C@H]3O)c(O)c12 [compound 1, isoorientin], the “effective dose protecting SH-SY5Y cells from Aβ42 (morphology)” value [2] is listed as 200 μM and the EC50 ([2]; read-out: neuroprotective potency, EC50, parent compound) is listed as 47 µM.
Work on O=c1cc(-c2ccc(O)c(O)c2)oc2c([C@@H]3O[C@H](CO)[C@@H](O)[C@H](O)[C@H]3O)c(O)cc(O)c12 [compound 3, orientin, reference compound] yielded an IC50 (GSK-3β [3]; GSK-3β inhibition, IC50, as stated in text) greater than 5 mM.
For COC(=O)[C@H]1O[C@@H](c2c(OC)cc3oc(-c4ccc(OC)c(OC)c4)cc(=O)c3c2OC)[C@H](O)[C@@H](O)[C@@H]1O [compound 7, Methyl (2S,3S,4R,5R,6S)-6-(2-(3,4-Dimethoxyphenyl)-5,7-dimethoxy-4-oxo-4H-chromen-6-yl)-3,4,5-trihydroxytetrahydro-2H-pyran-2-carboxylate], the “fold increase of potency against GSK-3β in comparison with 1” value (GSK-3β [3]; ratio of IC50 values relative to isoorientin 1) was 1.37 fold.
With COc1ccc(-c2cc(=O)c3c(OC)c([C@@H]4O[C@H](C(=O)NC(C)C)[C@@H](O)[C@H](O)[C@H]4O)c(OC)cc3o2)cc1OC [compound 9, (2S,3S,4R,5R,6S)-6-(2-(3,4-Dimethoxyphenyl)-5,7-dimethoxy-4-oxo-4H-chromen-6-yl)-3,4,5-trihydroxy-N-isopropyltetrahydro-2H-pyran-2-carboxamide] the “Ligand-lipophilic efficiency (LiPE)” value (GSK-3β [3]) was no less than 4, the Papp at 5 h, 20 μM [4] was greater than 1.5 ×10⁻⁶ cm/s and the “effect on GSK-3β mediated tau hyperphosphorylation (pS396)” value (“effect … (pS396)” below) [5] was “effectively attenuated tau hyperphosphorylation in a dose-dependent manner”.
With COc1ccc(-c2cc(=O)c3c(OC)c([C@@H]4O[C@H](C(=O)NC5CCCCC5)[C@@H](O)[C@H](O)[C@H]4O)c(OC)cc3o2)cc1OC [compound 17, (2S,3S,4R,5R,6S)-N-Cyclohexyl-6-(2-(3,4-dimethoxyphenyl)-5,7-dimethoxy-4-oxo-4H-chromen-6-yl)-3,4,5-trihydroxytetrahydro-2H-pyran-2-carboxamide] the Papp at 5 h, 20 μM [4] was greater than 1.5 ×10⁻⁶ cm/s and the “effect … (pS396)” value [5] was “effectively attenuated tau hyperphosphorylation in a dose-dependent manner”.
For COc1ccc(-c2cc(=O)c3c(OC)c([C@@H]4O[C@H](C(=O)NCc5ccccc5)[C@@H](O)[C@H](O)[C@H]4O)c(OC)cc3o2)cc1OC [compound 21, (2S,3S,4R,5R,6S)-6-(2-(3,4-Dimethoxyphenyl)-5,7-dimethoxy-4-oxo-4H-chromen-6-yl)-3,4,5-trihydroxy-N-benzyltetrahydro-2H-pyran-2-carboxamide], the Papp at 5 h, 20 μM [4] was 1 to 1.5 ×10⁻⁶ cm/s and the “effect … (pS396)” value [5] was “effectively attenuated tau hyperphosphorylation in a dose-dependent manner”.
In the case of COc1ccc(-c2cc(=O)c3c(OC)c([C@@H]4O[C@H](C(=O)N[C@@H](C)C(F)(F)F)[C@@H](O)[C@H](O)[C@H]4O)c(OC)cc3o2)cc1OC [compound 30, (2S,3S,4R,5R,6S)-6-(2-(3,4-Dimethoxyphenyl)-5,7-dimethoxy-4-oxo-4H-chromen-6-yl)-3,4,5-trihydroxy-N-((S)-1,1,1-trifluoropropan-2-yl)tetrahydro-2H-pyran-2-carboxamide], the “selectivity to GSK-3β versus GSK-3α” value (GSK-3β [3]; 5 μM, ratio of % inhibition) is reported as 12.3 fold, the “fold increased potency against GSK-3β compared to 9” value (GSK-3β [3]; 30 compared to 9) is reported as “approximately 9 fold” and the “fold more potent against GSK-3β than epimer 31” value (GSK-3β [3]; 30 compared to 31) is reported as “about 4 fold”. The recovery at 5 h, 20 μM ([4]; pH 7.4) was 30%, the Papp at 5 h, 20 μM [4] was greater than 1.5 ×10⁻⁶ cm/s and the “inhibition of 40 out of 41 kinases in the test panel” value [6] was “marginal or weak inhibition”. The “anti-tau effect relative to TDZD-8” value ([5]; 10 μM, TDZD-8 at the same concentration) was “comparable to TDZD-8”, the “effect … (pS396)” value [5] was “effectively attenuated tau hyperphosphorylation in a dose-dependent manner” and the “inhibition mode with respect to substrate GS2” value (GSK-3β [7]; ATP 10 μM, GS2 8 to 66 μM) was “competed with the substrate GS2”. For the same compound, the “inhibition mode with respect to ATP” value (GSK-3β [7]; GS2 17 μM, ATP 2 to 50 μM) was “no competition between ATP and 30”, the “cell viability recovered (from 40% with Aβ42 alone)” value ([8]; pretreatment 1.25 to 20 μM for 1 h, then 10 μM Aβ42 for 72 h, dose-dependent) was 100% and the “effective dose protecting SH-SY5Y cells from Aβ42 (morphology)” value ([8]; pretreatment, 10 μM Aβ42, 72 h) was 10 μM. The “dose with no observable cytotoxicity” value (SH-SY5Y cells) was no more than 1000 µM.
In the case of COc1ccc(-c2cc(=O)c3c(OC)c([C@@H]4O[C@H](C(=O)N[C@H](C)C(F)(F)F)[C@@H](O)[C@H](O)[C@H]4O)c(OC)cc3o2)cc1OC [compound 31, (2S,3S,4R,5R,6S)-6-(2-(3,4-Dimethoxyphenyl)-5,7-dimethoxy-4-oxo-4H-chromen-6-yl)-3,4,5-trihydroxy-N-((R)-1,1,1-trifluoropropan-2-yl)tetrahydro-2H-pyran-2-carboxamide], the “Ligand-lipophilic efficiency (LiPE)” value (GSK-3β [3]) is reported as no less than 4.

Source: article PMC7368552 (ACS chemical neuroscience, 2018)
